≈ marks a conversion by molar mass, not a printed value. Where two headings read alike, the source gives them in different places.
Key:
Experiment in all cases: Antibacterial activity (MIC), Japan Society of Chemotherapy standard method
Format in all cases: cell-based
[1] = test system: S. aureus FDA 209P
Procedure: (§1) Antibacterial activities of the compounds of the invention were measured in accordance with the standard method specified by the Japan Society of Chemotherapy, with the results shown in the following table as MIC values (μg/ml). In this connection, MIC values of levofloxacin (LVFX), ciprofloxacin (CPFX) and 5-amino-7-[3-(R)-[1-(S)-aminoethyl]pyrrolidin-1-yl]-6-fluoro-1-[2-(S)-fluoro-1-(R)-cyclopropyl]-8-methyl-1,4-dihydro-4-oxoquinoline-3-carboxylic acid (control drug 1) described in WO 9623782 are also shown for the sake of comparison with the MIC values of the compounds of the invention.

[2] = test system: S. epidermidis 56500
Procedure: as §1

[3] = test system: Ser. marcescens 10100
Procedure: as §1

[4] = test system: E. coli NIHJ
Procedure: as §1

[5] = test system: Ps. aeruginosa 32121
Procedure: as §1

[6] = test system: S. aureus 870307
Procedure: as §1

[7] = test system: Str. pyrogenes G-36
Procedure: as §1

[8] = test system: Pr. Vulgaris O8601
Procedure: as §1

[9] = test system: X. maltophilia IID 1275
Procedure: as §1

[10] = test system: Str. pneumoniae J24
Procedure: as §1

[11] = test system: S. flexneri 2A 5503
Procedure: as §1

[12] = test system: E. faecalis ATCC 19433
Procedure: as §1

[13] = test system: Ps. aeruginosa 32104
Procedure: as §1

[14] = test system: K. pneumoniae TYPE 1
Procedure: as §1

[15] = Staphylococcus aureus, FDA209P, read-out: MIC
[16] = Staphylococcus epidermidis, read-out: MIC
[17] = Serratia marcescens, 10100, Ser. marcescens 10100, read-out: MIC
[18] = Escherichia coli, read-out: MIC
[19] = Pseudomonas aeruginosa, 32121, Ps. aeruginosa 32121, read-out: MIC
[20] = Staphylococcus aureus, 870307, S. aureus 870307, read-out: MIC
[21] = Proteus vulgaris, read-out: MIC
[22] = Stenotrophomonas maltophilia, IID1275, X. maltophilia IID 1275, read-out: MIC
[23] = Streptococcus pneumoniae, J24, Str. pneumoniae J24, read-out: MIC
[24] = Shigella flexneri, 2A5503, S. flexneri 2A 5503, read-out: MIC
[25] = Enterococcus faecalis, ATCC19433, E. faecalis ATCC 19433, read-out: MIC
[26] = Pseudomonas aeruginosa, 32104, Ps. aeruginosa 32104, read-out: MIC
[27] = Klebsiella pneumoniae, TYPE1, K. pneumoniae TYPE 1, read-out: MIC

SMILES | MIC [1] | MIC [2] | MIC ([3]; Ser. marcescens 10100) | MIC [4] | MIC ([5]; Ps. aeruginosa 32121) | MIC ([6]; S. aureus 870307) | MIC [7] | MIC [8] | MIC ([9]; X. maltophilia IID 1275) | MIC ([10]; Str. pneumoniae J24) | MIC ([11]; S. flexneri 2A 5503) | MIC ([12]; E. faecalis ATCC 19433) | MIC ([13]; Ps. aeruginosa 32104) | MIC ([14]; K. pneumoniae TYPE 1) | MIC [1, 15] | MIC [2, 16] | MIC [3, 17] | MIC [4, 18] | MIC [5, 19] | MIC [6, 20] | also measured
COc1ccccc1C(N)[C@@H]1CCN(c2c(F)c(N)c3c(=O)c(C(=O)O)cn([C@@H]4C[C@@H]4F)c3c2F)C1 (stereo partly drawn) [Example 8, 5-Amino-7-[3-(R)-(1-Amino-1-(2-Methoxy) Phenylmethyl)-1-Pyrrolidinyl]-6,8-Difluoro-1-[2-(S)-Fluoro-1-(R)-Cyclopropyl]-1,4-Dihydro-4-Oxoquinoline-3-Carboxylic Acid] | ≦0.003 μg/ml | ≦0.003 μg/ml | 0.2 µg/mL (≈ 0.398 µM) | ≦0.003 μg/ml | 0.1 µg/mL (≈ 0.199 µM) | 0.013 µg/mL (≈ 0.0259 µM) | ≦0.003 μg/ml | 0.2 µg/mL (≈ 0.398 µM) | 0.2 µg/mL (≈ 0.398 µM) | ≦0.003 μg/ml | 0.006 µg/mL (≈ 0.0119 µM) | 0.025 µg/mL (≈ 0.0498 µM) | 0.2 µg/mL (≈ 0.398 µM) | 0.05 µg/mL (≈ 0.0995 µM) | – | – | – | – | – | – | –
C[C@H]1COc2c(N3CCN(C)CC3)c(F)cc3c(=O)c(C(=O)O)cn1c23 [LVFX, levofloxacin, reference compound] | – | – | – | – | – | – | – | – | – | – | – | – | – | – | 0.2 µg/mL (≈ 0.553 µM) | 0.39 µg/mL (≈ 1.08 µM) | 0.1 µg/mL (≈ 0.277 µM) | 0.013 µg/mL (≈ 0.036 µM) | 0.1 µg/mL (≈ 0.277 µM) | > 6.25 µg/mL | MIC ([7]; read-out: MIC): 0.2 µg/mL (≈ 0.553 µM); MIC [8, 21]: 0.13 µg/mL (≈ 0.36 µM); MIC [9, 22]: 0.39 µg/mL (≈ 1.08 µM); MIC [10, 23]: 0.78 µg/mL (≈ 2.16 µM); MIC [11, 24]: 0.025 µg/mL (≈ 0.0692 µM); MIC [12, 25]: 0.78 µg/mL (≈ 2.16 µM); MIC [13, 26]: 0.2 µg/mL (≈ 0.553 µM); MIC [14, 27]: 0.1 µg/mL (≈ 0.277 µM)
Nc1c(F)c(N2CC[C@@H](C(N)c3cccnc3)C2)c(F)c2c1c(=O)c(C(=O)O)cn2[C@@H]1C[C@@H]1F (stereo partly drawn) [Example 19, 5-Amino-7-(3-(R)-[1-amino-1-(3-pyridyl)methyl]-1-pyrrolidinyl]-6,8-difluoro-1-[(1R, 2S)-2-fluorocyclopropyl]-1,4-dihydro-4-oxoquinoline-3-carboxylic acid] | – | – | – | – | – | – | – | – | – | – | – | – | – | – | ≤ 0.003 µg/mL | ≤ 0.003 µg/mL | 0.1 µg/mL (≈ 0.211 µM) | ≤ 0.003 µg/mL | 0.05 µg/mL (≈ 0.106 µM) | 0.025 µg/mL (≈ 0.0528 µM) | MIC ([7]; read-out: MIC): ≤ 0.003 µg/mL; MIC [8, 21]: 0.025 µg/mL (≈ 0.0528 µM); MIC [9, 22]: 0.1 µg/mL (≈ 0.211 µM); MIC [10, 23]: ≤ 0.003 µg/mL; MIC [11, 24]: ≤ 0.003 µg/mL; MIC [12, 25]: 0.025 µg/mL (≈ 0.0528 µM); MIC [13, 26]: 0.2 µg/mL (≈ 0.422 µM); MIC [14, 27]: 0.025 µg/mL (≈ 0.0528 µM)
Nc1c(F)c(N2CC[C@@H](C(N)c3ccccc3)C2)c(F)c2c1c(=O)c(C(=O)O)cn2[C@@H]1C[C@@H]1F (single isomer, unassigned) [Example 2] | ≦0.003 μg/ml | ≦0.003 μg/ml | 0.05 µg/mL (≈ 0.106 µM) | ≦0.003 μg/ml | 0.025 µg/mL (≈ 0.0529 µM) | ≦0.003 μg/ml | ≦0.003 μg/ml | 0.025 µg/mL (≈ 0.0529 µM) | 0.025 µg/mL (≈ 0.0529 µM) | ≦0.003 μg/ml | ≦0.003 μg/ml | 0.006 µg/mL (≈ 0.0127 µM) | 0.1 µg/mL (≈ 0.212 µM) | 0.013 µg/mL (≈ 0.0275 µM) | – | – | – | – | – | – | –
COc1c(N2CC[C@@H](C(N)c3ccccc3)C2)ccc2c(=O)c(C(=O)O)cn([C@@H]3C[C@@H]3F)c12 (stereo partly drawn) [Example 6, 7-[3-(R)-(1-Amino-1-Phenylmethyl)-1-Pyrrolidinyl]-1-[2-(S)-Fluoro-1-(R)-Cyclopropyl]-1,4-Dihydro-8-Methoxy-4-Oxoquinoline-3-Carboxylic Acid] | – | – | – | – | – | – | – | – | – | – | – | – | – | – | ≤ 0.003 µg/mL | 0.006 µg/mL (≈ 0.0133 µM) | 0.1 µg/mL (≈ 0.221 µM) | 0.006 µg/mL (≈ 0.0133 µM) | 0.1 µg/mL (≈ 0.221 µM) | 0.013 µg/mL (≈ 0.0288 µM) | MIC ([7]; read-out: MIC): ≤ 0.003 µg/mL; MIC [8, 21]: 0.1 µg/mL (≈ 0.221 µM); MIC [9, 22]: 0.1 µg/mL (≈ 0.221 µM); MIC [10, 23]: ≤ 0.003 µg/mL; MIC [11, 24]: 0.013 µg/mL (≈ 0.0288 µM); MIC [12, 25]: 0.025 µg/mL (≈ 0.0554 µM); MIC [13, 26]: 0.2 µg/mL (≈ 0.443 µM); MIC [14, 27]: 0.05 µg/mL (≈ 0.111 µM)
Cc1c(N2CC[C@@H](C(N)c3ccccn3)C2)c(F)c(N)c2c(=O)c(C(=O)O)cn([C@@H]3C[C@@H]3F)c12 (stereo partly drawn) [Example 17, 5-Amino-7-{3-(R)-[1-amino-1-(2-pyridyl)methyl]-1-pyrrolidiny}-6-fluoro-1-[(1R, 2S)-2-fluorocyclopropyl)-1,4-dihydro-8-methyl-4-oxoquinoline-3-carboxylic acid] | ≦0.003 μg/ml | ≦0.003 μg/ml | 0.1 µg/mL (≈ 0.213 µM) | ≦0.003 μg/ml | 0.1 µg/mL (≈ 0.213 µM) | 0.013 µg/mL (≈ 0.0277 µM) | ≦0.003 μg/ml | 0.05 µg/mL (≈ 0.106 µM) | 0.05 µg/mL (≈ 0.106 µM) | ≦0.003 μg/ml | 0.006 µg/mL (≈ 0.0128 µM) | 0.025 µg/mL (≈ 0.0532 µM) | 0.2 µg/mL (≈ 0.426 µM) | 0.05 µg/mL (≈ 0.106 µM) | – | – | – | – | – | – | –
